In the test the target is T1, LHRH rat pituitary receptor (Rattus norvegicus, UniProt P30969).
T1 construct: from tissue; host or cells: rat pituitary
T1 sequence (P30969 1-327): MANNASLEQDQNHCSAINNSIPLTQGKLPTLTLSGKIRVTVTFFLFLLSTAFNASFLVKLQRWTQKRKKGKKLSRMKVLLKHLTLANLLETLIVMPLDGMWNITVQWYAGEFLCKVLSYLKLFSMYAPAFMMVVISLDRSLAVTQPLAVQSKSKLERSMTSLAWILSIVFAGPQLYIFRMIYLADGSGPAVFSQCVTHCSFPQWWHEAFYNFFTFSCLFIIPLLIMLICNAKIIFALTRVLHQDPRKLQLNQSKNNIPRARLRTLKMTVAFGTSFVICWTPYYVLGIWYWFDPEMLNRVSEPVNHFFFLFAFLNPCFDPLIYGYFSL
Briefly: LHRH rat pituitary receptor binding (pKI). As to conditions: negative logarithm of the equilibrium dissociation constants, Table 1, read-out: receptor binding affinity (pKI) (converted). Here is the method:
Representative compounds of the present invention were evaluated in in vitro tests for LHRH rat pituitary receptor binding (pKI) and for LH inhibition from rat pituitary cells for antagonist potency (pA2). The tests employed the methods detailed in F. Haviv, et al. J. Med. Chem., 32: 2340-2344 (1989). The receptor binding affinity (pKI) is the negative logarithm of the equilibrium dissociation constants.
On to `CC[C@H]1OC(=O)[C@H](C)[C@@H](O[C@H]2C[C@@](C)(OC)[C@@H](O)[C@H](C)O2)[C@H](C)[C@@H](O[C@@H]2O[C@H](C)C[C@H](N(C)Cc3ccc(OCCO)cc3)[C@H]2O)[C@](C)(OC)C[C@@H](C)C(=O)[C@H](C)[C@H]2N(CCc3ccc(F)c(Cl)c3)C(=O)O[C@]12C` [Example 49, 3'-N-Desmethyl-3'-N-(4-hydroxyethoxybenzyl)-11-deoxy-11-[carboxy-(3-chloro-4-fluorophenethylamino)]-6-O-methyl-erythromycin A 11,12-(cyclic carbamate)], for which the Ki is 3.16 nM.

With `CC[C@H]1OC(=O)[C@H](C)[C@@H](O[C@H]2C[C@@](C)(OC)[C@@H](O)[C@H](C)O2)[C@H](C)[C@@H](O[C@@H]2O[C@H](C)C[C@H](N(C)CCC(C)SC)[C@H]2O)[C@](C)(OC)C[C@@H](C)C(=O)[C@H](C)[C@H]2N(CCc3ccc(F)c(Cl)c3)C(=O)O[C@]12C` (stereo partly shown) [Example 50, 3'-N-Desmethyl-3'-N-(3-methylthio)butyl-11-deoxy-11-[carboxy-(3-chloro-4-fluorophenethylamino)]-6-O-methyl-erythromycin A 11,12-(cyclic carbamate)], the Ki was 0.977 nM. Consider `CC[C@H]1OC(=O)[C@H](C)[C@@H](O[C@H]2C[C@@](C)(OC)[C@@H](O)[C@H](C)O2)[C@H](C)[C@@H](O[C@@H]2O[C@H](C)C[C@H](N(C)CCCC(F)(F)F)[C@H]2O)[C@](C)(OC)C[C@@H](C)C(=O)[C@H](C)[C@H]2N(CCc3ccc(F)c(Cl)c3)C(=O)O[C@]12C` [Example 51, 3'-N-Desmethyl-3'-N-(4,4,4-trifluorobutyl)-11-deoxy-11-[carboxy-(3-chloro-4-fluorophenethylamino)]-6-O-methyl-erythromycin A 11,12-(cyclic carbamate)], for which the Ki was 6.31 nM. Next, `CC[C@H]1OC(=O)[C@H](C)[C@@H](O[C@H]2C[C@@](C)(OC)[C@@H](O)[C@H](C)O2)[C@H](C)[C@@H](O[C@@H]2O[C@H](C)C[C@H](N(C)C3CCC3)[C@H]2O)[C@](C)(OC)C[C@@H](C)C(=O)[C@H](C)[C@H]2N(CCc3ccc(Cl)c(F)c3)C(=O)O[C@]12C` [Example 52, 3'-N-Desmethyl-3'-N-cyclobutyl-11-deoxy-11-[carboxy-(4-chloro-3-fluorophenethylamino)]-6-O-methyl-erythromycin A 11,12-(cyclic carbamate)]: 7.94 nM; `CC[C@H]1OC(=O)[C@H](C)[C@@H](O[C@H]2C[C@@](C)(OC)[C@@H](O)[C@H](C)O2)[C@H](C)[C@@H](O[C@@H]2O[C@H](C)C[C@H](N(C)C(C)C)[C@H]2O)[C@](C)(OC)C[C@@H](C)C(=O)[C@H](C)[C@H]2N(CCc3ccc(F)c(F)c3)C(=O)O[C@]12C` [Example 53, 3'-N-Desmethyl-3'-N-isopropyl-11-deoxy-11-[carboxy-(3,4-difluorophenethylamino)]-6-O-methyl-erythromycin A 11,12-(cyclic carbamate)]: 3.02 nM. Turning to `CCCN(C)[C@H]1C[C@@H](C)O[C@@H](O[C@@H]2[C@@H](C)[C@H](O[C@H]3C[C@@](C)(OC)[C@@H](O)[C@H](C)O3)[C@@H](C)C(=O)O[C@H](CC)[C@@]3(C)OC(=O)N(CCc4ccc5c(c4)OCCO5)[C@@H]3[C@@H](C)C(=O)[C@H](C)C[C@@]2(C)OC)[C@@H]1O` [Example 54, 3'-N-Desmethyl-3'-N-propyl-11-deoxy-11-[carboxy-[3 4-(1,4-dioxano)phenethylamino)]}-6-O-methyl-erythromycin A 11,12-(cyclic carbamate)], the Ki was 4.07 nM. In the case of `CC[C@H]1OC(=O)[C@H](C)[C@@H](O[C@H]2C[C@@](C)(OC)[C@@H](O)[C@H](C)O2)[C@H](C)[C@@H](O[C@@H]2O[C@H](C)C[C@H](N(C)CC3CC3)[C@H]2O)[C@](C)(OC)C[C@@H](C)C(=O)[C@H](C)[C@H]2N(CCc3ccc(Cl)c(Cl)c3)C(=O)O[C@]12C` [Example 55, 3'-N-Desmethyl-3'-N-cyclopropylmethyl-11-deoxy-11-[carboxy-(3,4-dichlorophenethylamino)]-6-O-methyl-erythromycin A 11,12-(cyclic carbamate)], the Ki is 7.24 nM. Turning to `CC[C@H]1OC(=O)[C@H](C)[C@@H](O[C@H]2C[C@@](C)(OC)[C@@H](O)[C@H](C)O2)[C@H](C)[C@@H](O[C@@H]2O[C@H](C)C[C@H](N(C)CCC[S+](C)[O-])[C@H]2O)[C@](C)(OC)C[C@@H](C)C(=O)[C@H](C)[C@H]2N(CCc3ccc(Cl)c(Cl)c3)C(=O)O[C@]12C` (stereo partly shown) [Example 56, 3'-N-Desmethyl-3'-N-[3-(methylsulfoxy)propyl]-11-deoxy-11-[carboxy-(3,4-dichlorophenethylamino)]-6-O-methyl-erythromycin A 11,12-(cyclic carbamate)], the Ki is 1.78 nM. Turning to `CCNC(=S)N(C)[C@H]1C[C@@H](C)O[C@@H](O[C@@H]2[C@@H](C)[C@H](O[C@H]3C[C@@](C)(OC)[C@@H](O)[C@H](C)O3)[C@@H](C)C(=O)O[C@H](CC)[C@@]3(C)OC(=O)N(CCc4ccc(Cl)c(Cl)c4)[C@@H]3[C@@H](C)C(=O)[C@H](C)C[C@@]2(C)OC)[C@@H]1O` [Example 57, 3'-N-Desmethyl-3'-N-ethylthiourea-11-deoxy-11-[carboxy-(3,4-dichlorophenethylamino)]-6-O-methyl-erythromycin A 11,12-(cyclic carbamate)], the Ki is 9.12 nM. Consider `CC[C@H]1OC(=O)[C@H](C)[C@@H](O[C@H]2C[C@@](C)(OC)[C@@H](O)[C@H](C)O2)[C@H](C)[C@@H](O[C@@H]2O[C@H](C)C[C@H](N(C)Cc3ccc(CO)o3)[C@H]2O)[C@](C)(OC)C[C@@H](C)C(=O)[C@H](C)[C@H]2N(CCc3ccc(Cl)c(Cl)c3)C(=O)O[C@]12C` [Example 58, 3'-N-Desmethyl-3'-N-[2-(5-hydroxymethyl)furyl]methyl-11-deoxy-11-[carboxy-(3,4-dichlorophenethylamino)]-6-O-methyl-erythromycin A 11,12-(cyclic carbamate)], for which the Ki is 1.55 nM.

Consider `CC[C@H]1OC(=O)[C@H](C)[C@@H](O[C@H]2C[C@@](C)(OC)[C@@H](O)[C@H](C)O2)[C@H](C)[C@@H](O[C@@H]2O[C@H](C)C[C@H](N(C)CC3CC3)[C@H]2O)[C@](C)(OC)C[C@@H](C)C(=O)[C@H](C)[C@H]2N(CC3(c4ccc(Cl)c(Cl)c4)CC3)C(=O)O[C@]12C` [Example 59, 3'-N-Desmethyl-3'-N-cyclopropylmethyl-11-deoxy-11-[carboxy-(α,α-cyclopropyl-3,4-dichlorophenethylamino)]-6-O-methyl-erythromycin A 11,12-(cyclic carbamate)], for which the Ki was 3.72 nM. In the case of `CCCN(C)[C@H]1C[C@@H](C)O[C@@H](O[C@@H]2[C@@H](C)[C@H](O[C@H]3C[C@@](C)(OC)[C@@H](O)[C@H](C)O3)[C@@H](C)C(=O)O[C@H](CC)[C@@]3(C)OC(=O)N(CCNc4ccc(Cl)cc4)[C@@H]3[C@@H](C)C(=O)[C@H](C)C[C@@]2(C)OC)[C@@H]1O` [Example 60, 3'-N-Desmethyl-3'-N-propyl-11-deoxy-11-[carboxy-(4-chloroanilinoethylamino)]-6-O-methyl-erythromycin A 11,12-(cyclic carbamate)] it was 2.69 nM; in that of `CC[C@H]1OC(=O)[C@H](C)[C@@H](O[C@H]2C[C@@](C)(OC)[C@@H](O)[C@H](C)O2)[C@H](C)[C@@H](O[C@@H]2O[C@H](C)C[C@H](N(C)C3CCCC3)[C@H]2O)[C@](C)(OC)C[C@@H](C)C(=O)[C@H](C)[C@H]2N(CCNc3ccc(Cl)cc3)C(=O)O[C@]12C` [Example 61], 2.69 nM; in that of `CC[C@H]1OC(=O)[C@H](C)[C@@H](O[C@H]2C[C@@](C)(OC)[C@@H](O)[C@H](C)O2)[C@H](C)[C@@H](O[C@@H]2O[C@H](C)C[C@H](N(C)Cc3ncc[nH]3)[C@H]2O)[C@](C)(OC)C[C@@H](C)C(=O)[C@H](C)[C@H]2N(CCc3ccc(Cl)c(Cl)c3)C(=O)O[C@]12C` [Example 63, 3'-N-Desmethyl-3'-N-(2-imidazolyl)methyl-11-deoxy-11-[carboxy-(3,4-dichlorophenethylamino)]-6-O-methyl-erythromycin A 11,12-(cyclic carbamate)], 7.41 nM.

For `CC[C@H]1OC(=O)[C@H](C)[C@@H](O[C@H]2C[C@@](C)(OC)[C@@H](O)[C@H](C)O2)[C@H](C)[C@@H](O[C@@H]2O[C@H](C)C[C@H](N(C)Cc3cccnc3)[C@H]2O)[C@](C)(OC)C[C@@H](C)C(=O)[C@H](C)[C@H]2N(CCc3ccc(Cl)c(Cl)c3)C(=O)O[C@]12C` [Example 64, 3'-N-Desmethyl-3'-N-(3-pyridyl)methyl-11-deoxy-11-[carboxy-(3,4-dichlorophenethylamino)]-6-O-methyl-erythromycin A 11,12-(cyclic carbamate)], the Ki was 6.92 nM. As to `CC[C@H]1OC(=O)[C@H](C)[C@@H](O[C@H]2C[C@@](C)(OC)[C@@H](O)[C@H](C)O2)[C@H](C)[C@@H](O[C@@H]2O[C@H](C)C[C@H](N(C)Cc3ccccn3)[C@H]2O)[C@](C)(OC)C[C@@H](C)C(=O)[C@H](C)[C@H]2N(CCc3ccc(Cl)c(Cl)c3)C(=O)O[C@]12C` [Example 65, 3'-N-Desmethyl-3'-N-(2-pyridyl)methyl-11-deoxy-11-[carboxy-(3,4-dichlorophenethylamino)]-6-O-methyl-erythromycin A 11,12-(cyclic carbamate)], the Ki was 7.41 nM.

Values taken from US5955440A, “Macrolide LHRH antagonists” (Abbott Laboratories, priority 1998, dated 1999).
